The test system of assay [1] is mutant calreticulin. Briefly: Western blot analysis of hematoxylin-resistant clones. The note with it: 24 h treatment. It is filed as cell-based, mouse. The protocol: FIG. 22: Western blot analysis of hematoxylin resistant clones. All cells were treated for 24 h with hematoxylin before collection.
Ba/F3-MPL CALR del79/WT and CALR del37/del37 cell lines were cultured with 20 uM of hematoxylin with or without 5% TPO continuously for 4 weeks. The cells were passaged every 3 days and seeded at 0.5 million per well in 6-well plates with addition of fresh hematoxylin and cytokine.
2 million Ba/F3-MPL CALR WT or mutant cells were treated with hematoxylin or the equivalent volume of DMSO in a total volume of 15 ml of RPMI media in T75 flasks (Thermal Fisher Scientific). Cells were collected and washed with PBS before being lysed in whole cell lysis buffer containing 20 mM HEPES, 20% glycerol, 50 mM KCl, 400 mM NaCl, 1 mM EDTA, 1 mM DTT, 5 mM Na orthovanadate, 0.5% NP40, 0.1% Tween 20, supplemented with cOmplete™, Mini, EDTA-free Protease Inhibitor Cocktail (Sigma) and PhosSTOP™ (Sigma). Samples were rotated at 4° C. for 20 min prior to centrifugation at […] for 20 min. The soluble fraction of the sample was collected. Protein concentration was quantified by the Bio-Rad Protein Assay (Bio-Rad) according to the manufacturer's instructions and measured by a SpectraMax Microplate Reader (Molecular Devices). […] Mutant calreticulin was detected by a polyclonal rabbit antibody against the mutant specific C-terminal peptide (Myelopro). […]
For orientation: In western blotting, separated proteins are transferred to a membrane and probed.

Assay [2] has as its system UT-7-TPO CALR del58/WT cells mixed with UT-7-TPO CALR WT cells. Briefly: two-color competition assay, 12 days. The note with it: in the presence of TPO. The assay is classed as cell-based. The protocol: FIG. 11: Competition assay of hematoxylin treatment in UT-7-TPO cells. UT-7-TPO CALR WT (mCherry negative) and UT-7-TPO CALR del58/WT (mCherry positive) cells were mixed and underwent hematoxylin treatment for 12 days. Drug and cytokine were refreshed every 3 days. Percentage of mCherry positive cells were recorded by FACs.
To determine long-term viability, a two-color competition assay was used. Cell lines were transduced with pMSCV-IRES-GFP/mCherry construct, and the fluorescence-positive cells were sorted by a SH800Z Cell Sorter (Sony). GFP/mCherry-positive cell lines were mixed with their non-fluorescent control cells in a 1:1 ratio and underwent compound treatment for 3-12 days. Compounds and cytokines were refreshed every 3 days. Cell samples were analyzed at each time point by a BD LSRFortessa™ cell analyzer (BD Biosciences).

The target in assay [3] is wild-type CALR protein (Homo sapiens, UniProt P27797). In words: binding assay (data not shown).
Assay [4] relates to mutant CALR protein. In words: binding assay (data not shown).
In assay [5] the test system is PARP cleavage. In words: Western blot time-course, Ba/F3-MPL CALR WT/del79. It is filed as cell-based. As to conditions: 8-hour time point. The procedure: (§1) 2 million Ba/F3-MPL CALR WT or mutant cells were treated with hematoxylin or the equivalent volume of DMSO in a total volume of 15 ml of RPMI media in T75 flasks (Thermal Fisher Scientific). Cells were collected and washed with PBS before being lysed in whole cell lysis buffer containing 20 mM HEPES, 20% glycerol, 50 mM KCl, 400 mM NaCl, 1 mM EDTA, 1 mM DTT, 5 mM Na orthovanadate, 0.5% NP40, 0.1% Tween 20, supplemented with cOmplete™, Mini, EDTA-free Protease Inhibitor Cocktail (Sigma) and PhosSTOP™ (Sigma). Samples were rotated at 4° C. for 20 min prior to centrifugation at […] for 20 min. The soluble fraction of the sample was collected. Protein concentration was quantified by the Bio-Rad Protein Assay (Bio-Rad) according to the manufacturer's instructions and measured by a SpectraMax Microplate Reader (Molecular Devices). Equal amounts of protein were loaded for 8% or 10% SDS-polyacrylamide gel electrophoresis prior to transfer to Amersham™ Protran® nitrocellulose membranes at 35V, 4° C. overnight. Membranes were then blocked by 5% bovine serum albumin fraction V (Sigma) or milk. Mutant calreticulin was detected by a polyclonal rabbit antibody against the mutant specific C-terminal peptide (Myelopro). […]

Assay [6] deals with STAT5 phosphorylation. Briefly: Western blot time-course, Ba/F3-MPL CALR WT/del79. The note with it: 8-hour time point. It is filed as cell-based. The procedure:
as §1

In assay [7] the test system is UT-7-TPO mutant cell lines. In words: 72 h dose response test, CellTiter-Glo cell viability assay. The assay is classed as cell-based. As to conditions: UT-7-TPO cell lines, mutant vs wild-type. The text has this: Among 140.000 structures, a list of compounds with the highest binding energy and specificity towards calreticulin was generated. Relying on compounds that were either commercially available or available from the DTP Databases of the National Cancer Institute (NCI), a docking compound library including 41 compounds was assembled, […] CALR cell lines (FIGS. 5 and 6). […] Two hits were identified as preferentially inhibiting mutant CALR cell line growth. […] Therefore, hematoxylin and derivatives thereof were used for further testing.
Background: Cellular ATP, detected with luciferase, serves as a proxy for viable cell number.

The test system of assay [8] is CALR mutant cell lines. In words: cells. As to conditions: 72 h, read-out: IC50 in mutant cell lines. The protocol:
(§2) Ba/F3 and UT-7-TPO were plated 5.000 cells/well and 16.000 cells/well into 96-well plates with the desirable concentrations of compounds or cytokines added to a total volume of 100 ul. 72 hours later, the CellTiter-Glo luminescent Cell Viability Assay (Promega) was used to determine the cell viability. The luminescent signal was detected by a VICTOR Multilabel Plate Reader (PerkinElmer). Dose response data was analyzed by Graphpad Prism 7.0.
(§3) To further explore the chemical space of the compound, a few hematoxylin analogues were also tested (FIGS. 15 to 17). […] The compounds Protosappanin B (A-4) and RJ002 (B-2) were also tested. […] As a comparison, the clinically used chemotherapeutic drugs hydroxyurea and ruxolitinib were also tested in the cell models.

For assay [9], the system named is Ba/F3-MPL CALR mutated cell line. In words: apoptosis assay by Annexin V/PI staining. The assay is classed as cell-based, mouse. The note with it: 20 uM, 24 h. The procedure:
(§4) Ba/F3-MPL CALR wild-type and mutant cell lines were treated with hematoxylin at 20 uM or the equivalent volume of DMSO for 24 h before collection. Annexin V Apoptosis Detection Kit (eBioscience, #88-8007-74) was used based on the manufacturer's instructions. 5 ul of Propidium Iodide Staining Solution (Invitrogen, #00-6990-50) was added to each sample for 10 min before being analyzed with the BD LSRFortessa™ cell analyzer without washing.

The test system of assay [10] is Ba/F3-MPL CALR wild-type control. In words: apoptosis assay by Annexin V/PI staining. It is filed as cell-based, mouse. As to conditions: 20 uM, 24 h. The procedure:
as §4

Assay [11] deals with CALR wild-type cell line. Briefly: 72 h dose response of hematoxylin, analogues and control compounds. The note with it: 72 h assay; read-out: IC50 in wild-type cell line. It is filed as cell-based. The protocol:
as §2, §3

Structures are written as SMILES.

For orientation: IC50 means the midpoint of a concentration-inhibition curve.

Chain of wild-type CALR protein (P27797 18-417): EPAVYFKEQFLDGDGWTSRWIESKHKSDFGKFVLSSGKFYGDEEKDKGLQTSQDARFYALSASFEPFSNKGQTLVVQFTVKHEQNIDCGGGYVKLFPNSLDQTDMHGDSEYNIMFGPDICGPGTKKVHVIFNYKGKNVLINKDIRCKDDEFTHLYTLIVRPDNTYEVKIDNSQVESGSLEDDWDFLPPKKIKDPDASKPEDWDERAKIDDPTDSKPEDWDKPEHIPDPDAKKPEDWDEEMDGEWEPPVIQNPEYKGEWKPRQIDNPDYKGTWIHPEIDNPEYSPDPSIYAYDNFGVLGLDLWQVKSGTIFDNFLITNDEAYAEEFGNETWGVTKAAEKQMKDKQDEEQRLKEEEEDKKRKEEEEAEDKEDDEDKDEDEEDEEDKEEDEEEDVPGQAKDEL

As to `Oc1cc2c(cc1O)[C@@H]1c3ccc(O)c(O)c3OC[C@]1(O)C2` [hematoxylin, Hematoxylin], in [1], the “compound-induced down-regulation of mutant calreticulin in resistant cell lines” value is listed as “resistance towards the compound-induced down-regulation”. The “outgrowth of mutant cells from the cell population” value in [2] was “inhibited the outgrowth of the mutant cells”. The “binding to wild-type CALR protein” value in assay [3] was “bound”. Also, the “binding to mutant CALR protein” value in assay [4] is recorded as “bound”. The “PARP cleavage (apoptotic marker)” value in [5] is “upregulation”. Moreover, the STAT5 phosphorylation entry in assay [6] was “decrease”. Also, the “hypersensitivity of mutant cell lines to the compound” value in assay [7] is reported as “hypersensitivity of mutant cell lines to the compound could be reproduced”. Also, the values for the IC50 in assay [8] and in [11] were 2.6 µM and 11.1 µM, respectively. The apoptotic cell numbers entry in [9] is “significant elevation of apoptotic cell numbers”; in assay [10] it was “not in the wild-type control”.

Source of the values: US12410185B2, “Compounds targeting mutant calreticulin” (MYELOPRO DIAGNOSTICS AND RESEARCH GmbH, priority 2018, dated 2025).
